Activity calls are given as the source filed them. How the calls were made is not given here.
Key:
[1] = M. tuberculosis log-phase growth inhibition, dose response, dry powder samples (AID 651850); conditions: M. tuberculosis log-phase growth, CFU enumeration
[2] = system: M. tuberculosis log-phase growth, CFU enumeration; assay: as above

In the case of `Fc1ccc(Cn2cc(CSc3nnc(C4CCC4)o3)nn2)cc1`, the outcome [1] is reported as “inactive”.

In the case of `O=S(Cc1ccccc1)c1nnc(-c2ccccc2)o1` (stereo not drawn), the IC90 [2] is reported as < 31 µM.

With `c1ccc(Cn2cc(CSc3nnc(-c4ccccc4)o3)nn2)cc1` the outcome [1] was “inactive”.

In the case of `c1ccc(-c2nnc(SCc3ccccn3)o2)cc1`, the IC90 [2] is reported as < 31 µM.

Compound `c1ccc(CSc2nnc(-c3ccccc3)o2)cc1` has an IC90 [2] of 62 µM.

With `Fc1ccc(Cn2cc(CSc3nnc(-c4ccc(Cl)cc4)o3)nn2)cc1` the outcome [1] was “inactive”.

For `Clc1ccc(-c2nnc(SCc3cn(Cc4ccccc4)nn3)o2)cc1`, the outcome [1] was “inactive” and the IC90 [2] was 125 µM.

With `Fc1ccc(Cn2cc(CSc3nnc(C4CCCC4)o3)nn2)cc1` the outcome [1] was “inactive”.

Work on `CC(C)c1nnc(SCc2ccccc2)o1` yielded an IC90 [2] of 125 µM.

In the case of `Fc1ccc(-c2nnc(SCc3cn(Cc4ccccc4)nn3)o2)cc1`, the IC90 [2] is reported as 62 µM.

In the case of `c1ccc(-n2cc(CSc3nnc(C4CCC4)o3)nn2)cc1`, the IC90 [2] is reported as 62 µM.

`COc1cccc(-c2nnc(SCc3ccccn3)o2)c1` showed an IC90 [2] of 62 µM.

In the case of `Fc1ccc(-c2nnc(SCc3ccccn3)o2)cc1`, the IC90 [2] is reported as 16 µM.

`c1ccc(CSc2nnc(C3CCCC3)o2)cc1` showed an IC90 [2] of 250 µM.

Compound `O=S(Cc1cn(Cc2ccccc2)nn1)c1nnc(-c2ccc(Cl)cc2)o1` (stereo not drawn) has an IC90 [2] of 62 µM.

Compound `c1ccc(-c2nnc(SCCN3CCN(c4ccccc4)CC3)o2)cc1` has an IC90 [2] of 62 µM.

Compound `COc1ccc(CSc2nnc(-c3ccc(Cl)cc3)o2)nc1` has an IC90 [2] of 16 µM.

For `c1ccc(Cn2cc(CSc3nnc(C4CCC4)o3)nn2)cc1`, the outcome [1] was “inactive”.

`Brc1cccc(-c2nnc(SCc3ccccn3)o2)c1` showed an IC90 [2] of 62 µM.

`c1ccc(Cn2cc(CSc3nnc(C4CCCC4)o3)nn2)cc1` showed an IC90 [2] of 62 µM.

Compound `c1ccc(-c2nnc(SCc3cscn3)o2)cc1` has an IC90 [2] of 62 µM.

For `c1ccc(-n2cc(CSc3nnc(C4CCCC4)o3)nn2)cc1`, the IC90 [2] was 62 µM.

In the case of `Fc1ccc(Cn2cc(CSc3nnc(-c4ccc(F)cc4)o3)nn2)cc1`, the outcome [1] is reported as “inactive”.

In the case of `Clc1ccc(-c2nnc(SCc3cn(-c4ccccc4)nn3)o2)cc1`, the outcome [1] is reported as “inactive”.

For `Fc1cccc(-c2nnc(SCc3ccccn3)o2)c1`, the IC90 [2] was 31 µM.

For `Fc1ccc(-c2nnc(SCc3cn(-c4ccccc4)nn3)o2)cc1`, the outcome [1] was “inactive”.

Work on `Brc1ccc(-c2nnc(SCc3ccccn3)o2)cc1` yielded an IC90 [2] of 62 µM.

Reference: PubChem BioAssay AID651850 (Broad Institute, 2012)
